Measured values reported in ChEMBL document CHEMBL5500347, “An update on antibacterial AlkylGuanidino Ureas: Design of new derivatives, synergism with colistin and data analysis of the whole library” (2024).
Converted amounts (≈) assume the structure as drawn. The source made the active and inactive calls. The calls are words filed in the database; no cut-off is given here.

Tests used:
Staphylococcus aureus = test: Antibacterial activity against Staphylococcus aureus ATCC 25923 incubated for 18 to 24 hrs by CLSI based microdilution broth method; type: functional; settings: time 18-24 hrs
Enterococcus faecalis = test: Antibacterial activity against Enterococcus faecalis ATCC 19433 incubated for 18 to 24 hrs by CLSI based microdilution broth method; type: functional; settings: time 18-24 hrs
Escherichia coli = test: Antibacterial activity against Escherichia coli CCUGT incubated for 18 to 24 hrs by CLSI based microdilution broth method; type: functional; settings: Escherichia coli, CCUGT; time 18-24 hrs; read-out: MIC
Bacillus subtilis = test: Antibacterial activity against Bacillus subtilis ATCC 6633 incubated for 18 to 24 hrs by CLSI based microdilution broth method; type: functional; settings: time 18-24 hrs
Acinetobacter baumannii [1] = test: Antibacterial activity against Acinetobacter baumannii ATCC 17978 incubated for 18 to 24 hrs by CLSI based microdilution broth method; type: functional; settings: Acinetobacter baumannii, ATCC 17978; time 18-24 hrs
Streptococcus pyogenes = test: Antibacterial activity against Streptococcus pyogenes ATCC 12344 incubated for 18 to 24 hrs by CLSI based microdilution broth method; type: functional; settings: time 18-24 hrs
Pseudomonas aeruginosa [2] = test: Antibacterial activity against Pseudomonas aeruginosa ATCC 27853 incubated for 18 to 24 hrs by CLSI based microdilution broth method; type: functional; settings: Pseudomonas aeruginosa, ATCC 27853; time 18-24 hrs
Klebsiella pneumoniae = test: Antibacterial activity against Klebsiella pneumoniae ATCC 13833 incubated for 18 to 24 hrs by CLSI based microdilution broth method; type: functional; settings: Klebsiella pneumoniae, ATCC 13833; time 18-24 hrs; read-out: MIC
Acinetobacter baumannii [3] = test: Antibacterial activity against Acinetobacter baumannii ATCC 17978 at 256 ug/ml incubated for 18 to 24 hrs by CLSI based microdilution broth method; type: functional, organism-based; settings: dose 256.0 µg/ml, time 18-24 hrs
Pseudomonas aeruginosa [4] = test: Antibacterial activity against Pseudomonas aeruginosa ATCC 27853 at 256 ug/ml incubated for 18 to 24 hrs by CLSI based microdilution broth method; type: functional, organism-based; settings: dose 256.0 µg/ml, time 18-24 hrs

SMILES | MIC (Staphylococcus aureus) [µg/mL] | MIC (Enterococcus faecalis) [µg/mL] | MIC (Escherichia coli) [µg/mL] | MIC (Bacillus subtilis) [µg/mL] | MIC (Acinetobacter baumannii [1]) [µg/mL] | MIC (Streptococcus pyogenes) [µg/mL] | MIC (Pseudomonas aeruginosa [2]) [µg/mL] | MIC (Klebsiella pneumoniae) [µg/mL] | Activity (Acinetobacter baumannii [3]) | Activity (Pseudomonas aeruginosa [4])
CSCCNC(=N)NCCCCCCCCN(CCCCCCCCNC(=N)N)C(=O)N(CCCCCCCCNC(=N)N)CCCCCCCCNC(=N)NCCSC.O=C(O)C(F)(F)F | 0.5 | 2 | 2 | 1 | 16 | 1 | 32 | 4 |  | 
CN[C@H](CC(C)C)C(=O)N[C@H]1C(=O)N[C@@H](CC(N)=O)C(=O)N[C@H]2C(=O)N[C@H]3C(=O)N[C@H](C(=O)N[C@H](C(=O)O)c4cc(O)cc(O)c4-c4cc3ccc4O)[C@H](O)c3ccc(c(Cl)c3)Oc3cc2cc(c3O[C@@H]2O[C@H](CO)[C@@H](O)[C@H](O)[C@H]2O[C@H]2C[C@](C)(N)[C@H](O)[C@H](C)O2)Oc2ccc(cc2Cl)[C@H]1O [VANCOMYCIN] |  | 1 (≈ 0.69 µM) |  | 0.5 (≈ 0.345 µM) |  | 1 (≈ 0.69 µM) |  |  |  | 
COCCNC(=N)NCCCCCCCCN(CCCCCCCCNC(=N)N)C(=O)N(CCCCCCCCNC(=N)N)CCCCCCCCNC(=N)NCCOC.O=C(O)C(F)(F)F | 0.5 | 1 | 1 | 0.5 | 8 | 0.5 | 16 | 2 |  | 
C/C=C/CNC(=N)NCCCCCCCCNC(N)=O.O=C(O)C(F)(F)F | 32 | 64 | 128 | 64 |  | 32 |  | 128 | inactive | inactive
N=C(N)NCCCCCCCCN(CCCCCCNC(=N)NCC1CC1)C(=O)N(CCCCCCCCNC(=N)N)CCCCCCNC(=N)NCC1CC1.O=C(O)C(F)(F)F | 0.25 | 8 | 4 | 1 | 64 | 1 | 128 | 4 |  | 
CNC(=O)NCCCCCCCCN(CCCCCCCCNC(=N)NCC1CC1)C(=O)N(CCCCCCCCNC(=N)NCC1CC1)CCCCCCCCNC(=O)NC.O=C(O)C(F)(F)F | 4 | 8 | 16 | 4 | 64 | 4 | 128 | 16 |  | 
CCCCNC(=N)NCCCCCCCCN(CCCCCCCCNC(=N)N)C(=O)N(CCCCCCCCNC(=N)N)CCCCCCCCNC(=N)NCCCC.O=C(O)C(F)(F)F | 1 | 2 | 2 | 1 | 4 | 2 | 8 | 2 |  | 
N=C(N)NCCCCCCCN(CCCCCCCNC(=N)NCC1CC1)C(=O)N(CCCCCCCNC(=N)N)CCCCCCCNC(=N)NCC1CC1.O=C(O)C(F)(F)F | 2 | 8 | 8 | 2 | 32 | 4 | 32 | 8 |  | 
C/C=C/CNC(=N)NCCCCCCCCN(CCCCCCCCNC(=N)N)C(=O)N(CCCCCCCCNC(=N)N)CCCCCCCCNC(=N)NC/C=C/C.O=C(O)C(F)(F)F | 1 | 2 | 2 | 2 | 8 | 2 | 16 | 2 |  | 
N=C(N)NCCCCCCCCN(CCCCCCCCNC(=N)NCC1CC1)C(=O)N(CCCCCCCCNC(=N)NCC1CC1)CCCCCCNC(=N)N.O=C(O)C(F)(F)F | 0.25 | 1 | 1 | 0.5 | 16 | 0.5 | 16 | 1 |  | 
CCCCCCCCCC(=O)N[C@@H](Cc1c[nH]c2ccccc12)C(=O)N[C@H](CC(N)=O)C(=O)N[C@@H](CC(=O)O)C(=O)N[C@@H]1C(=O)NCC(=O)N[C@@H](CCCN)C(=O)N[C@@H](CC(=O)O)C(=O)N[C@H](C)C(=O)N[C@@H](CC(=O)O)C(=O)NCC(=O)N[C@H](CO)C(=O)N[C@@H]([C@H](C)CC(=O)O)C(=O)N[C@@H](CC(=O)c2ccccc2N)C(=O)O[C@@H]1C | 0.12 (≈ 0.074 µM) | 1 (≈ 0.617 µM) |  | 1 (≈ 0.617 µM) |  | 0.5 (≈ 0.309 µM) |  |  |  | 
N=C(N)NCCCCCCCCN(CCCCCCCCNC(=N)NCCC12CC3CC(CC(C3)C1)C2)C(=O)N(CCCCCCCCNC(=N)N)CCCCCCCCNC(=N)NCCC12CC3CC(CC(C3)C1)C2.O=C(O)C(F)(F)F | 8 | 16 | 32 | 16 | 64 | 16 | 128 | 32 |  | 
O=C(O)C(F)(F)F.[N-]=[N+]=NCCCCCCCCN(CCCCCCCCNC(=N)NCC1CC1)C(=O)N(CCCCCCCCN=[N+]=[N-])CCCCCCCCNC(=N)NCC1CC1 | 4 | 8 | 16 | 32 | 64 | 8 | 128 | 16 |  | 
N=C(N)NCCCCCCCCCN(CCCCCCCCCNC(=N)NCC1CC1)C(=O)N(CCCCCCCCCNC(=N)N)CCCCCCCCCNC(=N)NCC1CC1.O=C(O)C(F)(F)F | 4 | 4 | 8 | 4 | 8 | 2 | 16 | 16 |  | 
N=C(N)NCCCCCCCCN(CCCCCCCCNC(=N)NCCN1CCOCC1)C(=O)N(CCCCCCCCNC(=N)N)CCCCCCCCNC(=N)NCCN1CCOCC1.O=C(O)C(F)(F)F | 1 | 2 | 4 | 1 | 32 | 1 | 64 | 4 |  | 

More lines, in order of falling MIC (Staphylococcus aureus), values ahead:

MIC (Staphylococcus aureus) [µg/mL] | MIC (Enterococcus faecalis) [µg/mL] | MIC (Escherichia coli) [µg/mL] | MIC (Bacillus subtilis) [µg/mL] | MIC (Acinetobacter baumannii [1]) [µg/mL] | MIC (Streptococcus pyogenes) [µg/mL] | MIC (Pseudomonas aeruginosa [2]) [µg/mL] | MIC (Klebsiella pneumoniae) [µg/mL] | SMILES | Activity (Acinetobacter baumannii [3]) | Activity (Pseudomonas aeruginosa [4])
2 | 4 | 4 | 2 | 8 | 4 | 16 | 4 | CC(C)CNC(=N)NCCCCCCCCN(CCCCCCCCNC(=N)N)C(=O)N(CCCCCCCCNC(=N)N)CCCCCCCCNC(=N)NCC(C)C.O=C(O)C(F)(F)F |  | 
2 | 4 | 8 | 4 | 128 | 4 | 64 | 16 | CNC(=S)NCCCCCCCCN(CCCCCCCCNC(=N)NCC1CC1)C(=O)N(CCCCCCCCNC(=N)NCC1CC1)CCCCCCCCNC(=S)NC.O=C(O)C(F)(F)F |  | 
1 | 4 | 8 | 4 | 64 | 4 | 128 | 4 | N=C(N)NCCCCCCCCN(CCCCCCCCNC(=N)NCC1CC1)C(=O)N(CCCCCCCCNC(=N)N)CCCCCCNC(=N)NCC1CC1.O=C(O)C(F)(F)F |  | 
1 | 4 | 16 | 2 | 32 | 4 | 32 | 8 | N=C(N)NCCCCCCCN(CCCCCCCNC(=N)NCC1CC1)C(=O)N(CCCCCCNC(=N)N)CCCCCCNC(=N)NCC1CC1.O=C(O)C(F)(F)F |  | 
1 | 2 | 2 | 2 | 4 | 2 | 8 | 2 | CC(C)=CCC/C(C)=C/CNC(=N)NCCCCCCCCN(CCCCCCCCNC(=N)N)C(=O)N(CCCCCCCCNC(=N)N)CCCCCCCCNC(=N)NC/C=C(\C)CCC=C(C)C.O=C(O)C(F)(F)F |  | 
0.5 | 1 | 0.5 | 1 | 8 | 1 | 8 | 1 | CCCNC(=N)NCCCCCCCCN(CCCCCCCCNC(=N)N)C(=O)N(CCCCCCCCNC(=N)N)CCCCCCCCNC(=N)NCCC.O=C(O)C(F)(F)F |  | 
0.5 | 4 | 8 | 2 | 16 | 1 | 16 | 4 | N=C(N)NCCCCCCCCN(CCCCCCCCNC(=N)NCC1CC1)C(=O)N(CCCCCCNC(=N)N)CCCCCCNC(=N)NCC1CC1.O=C(O)C(F)(F)F |  | 
0.25 | 1 | 1 | 1 | 4 | 1 | 8 | 1 | N=C(N)NCCCCCCCCN(CCCCCCCCNC(=N)NC1CCCC1)C(=O)N(CCCCCCCCNC(=N)N)CCCCCCCCNC(=N)NC1CCCC1.O=C(O)C(F)(F)F |  | 
0.25 | 4 | 2 | 1 | 32 | 1 | 32 | 2 | N=C(N)NCCCCCCN(CCCCCCCCNC(=N)NCC1CC1)C(=O)N(CCCCCCCCNC(=N)NCC1CC1)CCCCCCNC(=N)N.O=C(O)C(F)(F)F |  | 
0.25 | 0.5 | 0.5 | 0.5 | 8 | 0.5 | 8 | 1 | CC(C)NC(=N)NCCCCCCCCN(CCCCCCCCNC(=N)N)C(=O)N(CCCCCCCCNC(=N)N)CCCCCCCCNC(=N)NC(C)C.O=C(O)C(F)(F)F |  | 
